Where two headings read alike, the source gives them in different places. Positions of bridges follow the written chain, without caps; N, C: chain ends. Residues, ends and D or L forms follow the SMILES beside them. No end group written: not given here.
How the values were obtained:
HIV-1 IIIB = assay: Inhibitors alone or in combination against HIV-1 IIIB; type: cell-based; conditions: mixture N6 / IBP-CP24, HIV-1 IIIB
Procedure: (§1) The samples were serially diluted and tested for their inhibitory activity on HIV-1 infection as described above. The data were analyzed for synergistic effect by calculating the combination index (CI) with the CalcuSyn software. CI values of <0.95 and >1.05 indicate synergy and antagonism, respectively. CI <0.1, 0.1–0.3, 0.3–0.7, 0.7–0.85, and 0.85–0.90 indicate very strong synergism, strong synergism, synergism, moderate synergism, and slight synergism, respectively. Fold of dose reduction was calculated with the ratio of concentrations of inhibitor testing alone and in combination.

[1] = system: H9/HIV-1IIIB target cells with PBMC effector cells; assay: ADCC assay, 10E8-mediated lysis; type: cell-based, human; conditions: peptide up to 20 μM added to 10E8
Procedure: H9/HIV-1IIIB cells expressing HIV-1 Env (2.5 × 10^4 cells) as the target cells were seeded into a 96-well plate (25 μL/well), and the mixture of a serially diluted inhibitors and 10E8 (1.5 μg/mL) was added to the culture plate. PBMC (AllCells) as effector cells (2.5 × 10^4 cells in 25 μL) were cocultured with the mixture-treated target cells at 37 °C overnight, and the […] activity was measured using the CytoTox-ONE Homogeneous Membrane Integrity Assay (Promega).

in vivo = assay: in vivo
Procedure: The samples were then centrifuged (3200 rpm for 10 min at 4 °C), and plasma was aliquoted and kept frozen until analysis.
After being coated, the plate was washed three times with PBS-T to remove the excess antibody. The remaining active sites on the plate were blocked by the addition of 150 μL 2% milk for 2 h at 37 °C. […] Then, HRP-labeled rabbit anti-mouse IgG (Sigma, USA) incubated at 37 °C for 1 h. The substrate TMB reagent were added and incubated for 5 min, resulting in the development of a blue color. Color development was stopped by the stop solution (1M H2SO4 50 μL/well). Absorbance at 450 nm was determined by an ELISA reader (Ultra 384, Tecan; Tecan, Research Triangle Park, NC).

[2] = target: T1, 6-HB formation between N36 and C34 (Human immunodeficiency virus type 1 group M subtype B, UniProt P04578); assay: Inhibition of 6-HB formation, sandwich ELISA; type: biochemical, HIV-1; conditions: N36 and C34 1 μM each, triplicate
T1 construct: purchased KareBay Biochem, Inc; host or cells: solid-phase chemical synthesis
T1 sequence (P04578 546-581): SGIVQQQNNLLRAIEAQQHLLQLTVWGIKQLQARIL
Procedure: The inhibitory activity of peptides on 6-HB formation was measured by the sandwich ELISA method, as previously described. Briefly, a 96-well polystyrene plate (Costar, Corning Inc., Corning, NY) was coated with rabbit anti-gp41 (NY-364) (2 μg/mL in 0.1 M Tris, pH 8.8). […] The mixture was added to the NY-364-coated plate, followed by incubation at room temperature for 60 min and washed three times with a washing buffer (PBS containing 0.1% Tween 20). The monoclonal antibody NC-1(1 μg/mL) was added to the plate and incubated at room temperature for 60 min, followed by washing three times. Rabbit anti-mouse IgG-HRP (Sigma) (1:3000 diluted) was added to each well and incubated at 37 °C for 1 h. The substrate 3, 3’, 5, 5’-tetramethylbenzidine (TMB; Sigma) was then added sequentially. Absorbance at 450 nm was measured using an ELISA reader (Ultra 384; Tecan, Research Triangle Park, NC). The percent inhibition by the peptides and the IC50 were calculated, as previously described.

T20-resistant strains = assay: Inhibition of T20-resistant HIV-1 variants, average; type: cell-based; conditions: comparison with CP24
Procedure: (§2) Briefly, 1×10^5/mL MT-2 or M7 cells were infected with different HIV-1 viruses at 100 TCID50 (50% tissue culture infective dose) in the presence or absence of peptides at graded concentrations overnight. Then the culture supernatants were replaced with equal volume of fresh medium. On the fourth day post-infection, supernatants were collected and mixed with equal volume of 5% Triton X-100. […] The IC50 values were calculated with CalcuSyn software [35–36], and inhibition curves of best fit were generated with GraphPad Prism.

Pseudoviruses = assay: Inhibition of pseudotyped HIV-1 infection, panel average; type: cell-based; conditions: average IC50 of 12 pseudotyped strains
Description: HIV-1 pseudoviruses were generated, as described previously.

[3] = rhesus monkeys; for t1/2: plasma, 10 mg/kg i.v., active peptide concentration estimated from ex vivo anti-HIV-1 IIIB activity (DF-IC50) and in vitro IC50, MODFIT; for AUC(0-t) / Cmax / MRT 0-inf_obs / Tmax: concentration estimated from ex vivo anti-HIV-1 activity
[4] = system: cell-cell fusion between H9/HIV-1IIIB and MT-2 cells; conditions: IC50 comparison with CP24
Procedure: The inhibitory activity of peptides against cell-cell fusion between H9/HIV-1IIIB and MT-2 cells was detected, as described previously [3, 81]. Briefly, H9/HIV-1IIIB cells were labeled with a fluorescent reagent, Calcein AM (Molecular Probes, Inc., Eugene, Oregon), and then incubated with MT-2 cells (ratio = 1:10) in a 96-well plate at 37 °C for 2 h in the presence of a test peptide at graded concentrations or PBS as a control. The fused and unfused Calcein-labeled HIV-1-infected cells were counted under an inverted fluorescence microscope (Zeiss, Germany). Three fields of each well were counted and the percentage of inhibition of cell fusion by peptides was calculated as described previously [81]. The IC50 values of fusion were calculated using the CalcusSn software [36] and the inhibition curves of best fit were generated with GraphPad Prism.

human IgG = assay: ELISA binding to human IgG; conditions: for binding to human IgG: ELISA, dose-dependent, triplicate
Procedure: Next, different concentrations of human or rhesus monkey IgG were added to the peptide-coated plate and incubated at 37 °C for 1 h. Rabbit anti-human IgG-HRP (1:3000 diluted) was added to each well and incubated at 37 °C for another 1 h. Afterwards, the bound IgG-HRP was detected by addition of the HRP substrate TMB. The reaction was terminated by addition of 1 M H2SO4 50 μL. Absorbance at 450 nm was measured using an ELISA reader (Ultra 384; Tecan, Research Triangle Park, NC).
The data was fitted to the “one site – specific binding” using GraphPad Prism. The standard error (SE) is given for a sample size of three replicates per data point.

[5] = system: HIV-1 Bal (subtype B, R5); type: cell-based; conditions: for IC50: Bal (subtype B, R5)
Procedure: as §2

HIV-1 clinical strains = type: cell-based; conditions: 8 clinical strains
Procedure: as §2

HIV-1 JR-CSF = assay: Inhibitors alone or in combination against HIV-1 JR-CSF; type: cell-based
Procedure: as §1

[6] = rhesus monkey, plasma, iv, 10 mg/kg

| Compound | effect on 10E8-mediated lytic activity [1] | AUC(0-t) (in vivo; [6]) [µg·h/mL] | Cmax (in vivo; [6]) [ng/mL] | MRT (in vivo; [6]) [h] | half-life (in vivo; [6]) [min] | t1/2 [3] [h] | AUC(0-t) [3] [µg·h/mL] | Cmax [3] [µg/mL] | MRT 0-inf_obs [3] [h] | Tmax [3] [h] | binding to human IgG (human IgG) | IC50 [5] [nM] | also measured |
| --- | --- | --- | --- | --- | --- | --- | --- | --- | --- | --- | --- | --- | --- |
| CC[C@H](C)[C@H](NC(=O)[C@H](CC(C)C)NC(=O)[C@H](CCC(=O)O)NC(=O)[C@H](CCC(=O)O)NC(=O)[C@@H](NC(=O)[C@H](CCCCN)NC(=O)[C@H](CCCCN)NC(=O)[C@@H](NC(=O)[C@H](Cc1ccc(O)cc1)NC(=O)[C@H](CCC(=O)O)NC(=O)[C@H](CCC(=O)O)NC(=O)[C@@H](NC(=O)[C@H](CCCCN)NC(=O)[C@H](CCCCN)NC(=O)[C@H](CC(=O)O)NC(=O)[C@H](Cc1c[nH]c2ccccc12)NC(=O)[C@H](CCC(=O)O)NC(=O)[C@H](CCC(=O)O)NC(=O)[C@H](Cc1c[nH]c2ccccc12)NC(=O)[C@@H](NC(=O)[C@H](CCSC)NC(=O)[C@@H](NC(=O)[C@@H]1CSSC[C@H](NC(=O)[C@@H](N)CC(=O)O)C(=O)N[C@@H](C)C(=O)N[C@@H](Cc2c[nH]c3ccccc23)C(=O)N[C@@H](Cc2c[nH]cn2)C(=O)N[C@@H](CC(C)C)C(=O)NCC(=O)N[C@@H](CCC(=O)O)C(=O)N[C@@H](CC(C)C)C(=O)N[C@@H](C(C)C)C(=O)N[C@@H](Cc2c[nH]c3ccccc23)C(=O)N1)[C@@H](C)O)[C@@H](C)O)[C@@H](C)CC)[C@@H](C)O)[C@@H](C)CC)C(=O)N[C@@H](CCCCN)C(=O)N[C@@H](CCCCN)C(=O)N[C@@H](CO)C(=O)O [IBP-CP24] (H-DCAWHLGELVWCTMTWEEWDKKIEEYTKKIEELIKKS-OH; disulfide 2-12; N-terminus and C-terminus assumed) | remained about the same | 3430 | 52700 | 64.4 | 2770 | 44.81 | 3610.65 | 76.23 | 61.39 | 4 | higher binding affinity with human IgG than IBP alone | 2.57 | Dose reduction (HIV-1 IIIB): 3.6 fold; fold longer half-life than CP24 (in vivo; rhesus monkey plasma, 10 mg/kg i.v.): 26 fold; fold higher AUC 0-t than CP24 (in vivo; rhesus monkeys, 10 mg/kg i.v.): about 18 fold; Tmax (in vivo; rhesus monkeys, single i.v. 10 mg/kg, sandwich ELISA, CP24 n = 2, IBP-CP24 n = 3): 4 h; inhibition of 6-HB formation between N36 and C34 [2]: much stronger inhibition on 6-HB formation than CP24 itself; average IC50 fold of that of CP24, T20-resistant strains (T20-resistant strains): about 1.5 fold; fold more potent than CP24, pseudotyped strains (Pseudoviruses): ~4.9 fold; fold more potent than T20, pseudotyped strains (Pseudoviruses): about 24.2 fold; fold of CP24 in cell-cell fusion inhibition [4]: about 1.2 fold; Kd (human IgG; read-out: Estimated Kd of binding to human IgG, ELISA on peptide-coated plate, one site specific binding fit, ± SE, three replicates per point): 177 nM; fold more potent than CP24 against HIV-1 Bal [5]: ~2.9 fold; average IC50 fold of that of CP24, clinical strains (HIV-1 clinical strains; comparison with CP24): ~1.1 fold; average IC50 fold of that of T20, clinical strains (HIV-1 clinical strains; comparison with T20): about 2.5 fold; Dose reduction (HIV-1 JR-CSF; mixture 10E8 / IBP-CP24, HIV-1 JR-CSF): 9.0 fold; Dose reduction (HIV-1 JR-CSF; mixture C34 / IBP-CP24, HIV-1 JR-CSF): 0.4 fold; Dose reduction (HIV-1 JR-CSF; mixture VRC07 / IBP-CP24, HIV-1 JR-CSF): 4.4 fold |
| MTWEEWDKKIEEYTKKIEELIKKS [CP24, reference compound] | remained about the same | 180 | 23600 | 4.47 | 101 | 1.37 | 237.88 | 77.82 | 3.17 | 2 | could not bind with human IgG | 10.1 | Tmax (in vivo; [6]): 2 h |

— paper PMC6894747 (PLoS Pathogens, 2019)
